Reference: patent publication US9938261B2, “Heterocyclic compounds and methods of use thereof” (AMBIT BIOSCIENCES CORPORATION, priority 2011, dated 2018)
Blank lines part the entries; values can stand above or below the molecule they belong to.

Columns and labels:
M-NFS-60 cells = assay: M-NFS-60 cell proliferation assay (Alamar Blue); type: cell-based, mouse; conditions: Mus musculus; M-NFS-60 cell proliferation; read-out: CSF1R M-NFS-60 CTB:IC50
How it was run: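 Mouse M-NFS-60 cells growing on 20 ng/mL M-CSF in RPMI/10% FBS were exposed to compounds (9 half-log concentrations, 0.5% DMSO) for 72 h at 37 °C. Viability read by Alamar Blue fluorescence (ex 560/em 590 nm, 3 h). IC50 = 50% proliferation inhibition versus control, mean of duplicates.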

FLT3 = molecular target: T1, FLT3 (Homo sapiens, UniProt P36888); assay: Competition binding assay, FLT3 Kd; conditions: competition binding
T1 construct: made in house
T1 sequence (P36888 27-993): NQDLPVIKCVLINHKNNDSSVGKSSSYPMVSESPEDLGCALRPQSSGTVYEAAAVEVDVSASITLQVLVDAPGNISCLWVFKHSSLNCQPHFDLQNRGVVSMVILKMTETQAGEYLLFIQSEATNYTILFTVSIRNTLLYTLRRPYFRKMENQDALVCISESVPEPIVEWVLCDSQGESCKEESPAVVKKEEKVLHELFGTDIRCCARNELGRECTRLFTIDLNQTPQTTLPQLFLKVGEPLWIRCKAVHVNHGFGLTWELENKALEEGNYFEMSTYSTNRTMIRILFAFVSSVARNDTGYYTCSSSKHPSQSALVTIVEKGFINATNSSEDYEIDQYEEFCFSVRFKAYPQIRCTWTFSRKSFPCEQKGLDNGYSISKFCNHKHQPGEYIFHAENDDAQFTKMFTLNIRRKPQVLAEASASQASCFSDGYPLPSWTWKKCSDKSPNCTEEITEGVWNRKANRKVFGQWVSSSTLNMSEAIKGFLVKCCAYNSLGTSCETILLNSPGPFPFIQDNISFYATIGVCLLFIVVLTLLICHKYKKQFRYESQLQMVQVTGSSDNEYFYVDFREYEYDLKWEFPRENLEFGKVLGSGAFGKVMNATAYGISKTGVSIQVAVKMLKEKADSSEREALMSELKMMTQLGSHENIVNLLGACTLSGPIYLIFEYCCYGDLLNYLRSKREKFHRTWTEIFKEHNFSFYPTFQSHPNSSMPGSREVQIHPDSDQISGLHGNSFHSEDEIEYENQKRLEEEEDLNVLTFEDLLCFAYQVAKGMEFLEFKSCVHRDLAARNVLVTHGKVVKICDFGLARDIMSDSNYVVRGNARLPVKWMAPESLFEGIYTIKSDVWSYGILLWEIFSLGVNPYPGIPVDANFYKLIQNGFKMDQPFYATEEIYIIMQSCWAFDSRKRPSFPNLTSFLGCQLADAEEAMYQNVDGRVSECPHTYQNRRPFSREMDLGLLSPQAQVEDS
How it was run: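 Kinases, either T7 phage fusions or HEK-293-expressed and DNA-tagged, competed with test compounds for immobilized biotinylated affinity ligand on streptavidin beads in binding buffer (20% SeaBlock, 0.17×PBS, 0.05% Tween 20, 6 mM DTT). After 1 hour at room temperature, bead-bound kinase was eluted and quantified by qPCR; Kd from eleven-point threefold dilutions.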

Structure (SMILES): CC(C)(O)C#Cc1cnc2c(c1)ncn2Cc1ccc2nc(N[C@@H]3CCCC[C@H]3O)sc2c1 [Example 104, (1R,2R)-2-((6-((6-(3-hydroxy-3-methylbut-1-yn-1-yl)-3H-imidazo[4,5-b]pyridin-3-yl)methyl)benzo[d]thiazol-2-yl)amino)cyclohexanol]
- IC50 (M-NFS-60 cells): ≤ 50 nM
- Kd (FLT3): ≤ 200 nM

Structure (SMILES): O[C@@H]1CCCC[C@H]1Nc1nc2ccc(Cn3cnc4cnc(C(F)(F)F)nc43)cc2s1 [Example 105, (1R,2R)-2-((6-((2-(trifluoromethyl)-9H-purin-9-yl)methyl)benzo[d]thiazol-2-yl)amino)cyclohexanol]
- IC50 (M-NFS-60 cells): 400 to 1500 nM
- Kd (FLT3): 200 to 1000 nM

Structure (SMILES): O[C@@H]1CCCC[C@H]1Nc1nc2ccc(Cc3cnc4ccc(Br)nn34)cc2s1 [Example 177, (1R,2R)-2-((6-((6-bromoimidazo[1,2-b]pyridazin-3-yl)methyl)benzo[d]thiazol-2-yl)amino)cyclohexanol]
- IC50 (M-NFS-60 cells): ≤ 50 nM
- Kd (FLT3): ≤ 200 nM

Structure (SMILES): CN1CCN(c2ccc3ncc(Cc4ccc5nc(N[C@@H]6CCCC[C@H]6O)sc5c4)n3n2)CC1 [Example 178, (1R,2R)-2-((6-((6-(4-methylpiperazin-1-yl)imidazo[1,2-b]pyridazin-3-yl)methyl)benzo[d]thiazol-2-yl)amino)cyclohexanol]
- IC50 (M-NFS-60 cells): 400 to 1500 nM
- Kd (FLT3): 200 to 1000 nM

Structure (SMILES): OC[C@H]1CC[C@H](Nc2nc3ccc(Cn4cnc5cc(F)cnc54)cc3s2)CC1 [Example 179, (trans-4-((6-((6-fluoro-3H-imidazo[4,5-b]pyridin-3-yl)methyl)benzo[d]thiazol-2-yl)amino)cyclohexyl)methanol]
- IC50 (M-NFS-60 cells): 400 to 1500 nM
- Kd (FLT3): 1000 to 5000 nM

Structure (SMILES): OC[C@H]1CC[C@@H](Nc2nc3ccc(Cn4cnc5cc(F)cnc54)cc3s2)CC1 [Example 180, (cis-4-((6-((6-fluoro-3H-imidazo[4,5-b]pyridin-3-yl)methyl)benzo[d]thiazol-2-yl)amino)cyclohexyl)methanol]
- IC50 (M-NFS-60 cells): > 1500 nM
- Kd (FLT3): 1000 to 5000 nM

Structure (SMILES): CS[C@@H]1CCCC[C@H]1Nc1nc2ccc(Cn3cnc4cc(F)cnc43)cc2s1 [Example 181, 6-((6-fluoro-3H-imidazo[4,5-b]pyridin-3-yl)methyl)-N-((1R,2R)-2-(methylthio)cyclohexyl)benzo[d]thiazol-2-amine]
- IC50 (M-NFS-60 cells): 400 to 1500 nM
- Kd (FLT3): 1000 to 5000 nM

Structure (SMILES): O[C@@H]1CCCC[C@H]1Nc1nc2ccc(Cn3cnc4cc(OC5COC5)ccc43)cc2s1 [Example 182, (1R,2R)-2-((6-((5-(oxetan-3-yloxy)-1H-benzo[d]imidazol-1-yl)methyl)benzo[d]thiazol-2-yl)amino)cyclohexanol]
- IC50 (M-NFS-60 cells): 50 to 400 nM
- Kd (FLT3): 200 to 1000 nM

Structure (SMILES): C=Cc1ccc2c(c1)ncn2Cc1ccc2nc(N[C@@H]3CCCC[C@H]3O)sc2c1 [Example 183, (1R,2R)-2-((6-((5-vinyl-1H-benzo[d]imidazol-1-yl)methyl)benzo[d]thiazol-2-yl)amino)cyclohexanol]
- IC50 (M-NFS-60 cells): ≤ 50 nM
- Kd (FLT3): 200 to 1000 nM

Second part, led by results:

- Kd (FLT3): 200 to 1000 nM
Structure (SMILES): O[C@@H]1CCCC[C@H]1Nc1nc2ccc(Cn3cnc4cc(C5=CCCCC5)ccc43)cc2s1 [Example 184, (1R,2R)-2-((6-((5-(cyclohex-1-en-1-yl)-1H-benzo[d]imidazol-1-yl)methyl)benzo[d]thiazol-2-yl)amino)cyclohexanol]
- IC50 (M-NFS-60 cells): 50 to 400 nM

- Kd (FLT3): ≤ 200 nM
Structure (SMILES): Cn1cc(-c2ccc3c(c2)ncn3Cc2ccc3nc(N[C@@H]4CCCC[C@H]4O)sc3c2)c(C(F)(F)F)n1 [Example 185, (1R,2R)-2-((6-((5-(1-methyl-3-(trifluoromethyl)-1H-pyrazol-4-yl)-1H-benzo[d]imidazol-1-yl)methyl)benzo[d]thiazol-2-yl)amino)cyclohexanol]
- IC50 (M-NFS-60 cells): 50 to 400 nM

- Kd (FLT3): ≤ 200 nM
Structure (SMILES): O[C@@H]1CCCC[C@H]1Nc1nc2ccc(Cc3cnc4cccc(F)n34)cc2s1 [Example 186, (1R,2R)-2-((6-((5-fluoroimidazo[1,2-a]pyridin-3-yl)methyl)benzo[d]thiazol-2-yl)amino)cyclohexanol]
- IC50 (M-NFS-60 cells): 400 to 1500 nM

- Kd (FLT3): > 5000 nM
Structure (SMILES): O[C@@H]1CCCC[C@H]1Nc1nc2ccc(Cc3cnc4cc(N5CCOCC5)ccn34)cc2s1 [Example 187, (1R,2R)-2-((6-((7-morpholinoimidazo[1,2-a]pyridin-3-yl)methyl)benzo[d]thiazol-2-yl)amino)cyclohexanol]
- IC50 (M-NFS-60 cells): 400 to 1500 nM

- Kd (FLT3): 1000 to 5000 nM
Structure (SMILES): CN1CCN(c2ccn3c(Cc4ccc5nc(N[C@@H]6CCCC[C@H]6O)sc5c4)cnc3c2)CC1 [Example 188, (1R,2R)-2-((6-((7-(4-methylpiperazin-1-yl)imidazo[1,2-a]pyridin-3-yl)methyl)benzo[d]thiazol-2-yl)amino)cyclohexanol]
- IC50 (M-NFS-60 cells): 400 to 1500 nM

- Kd (FLT3): 200 to 1000 nM
Structure (SMILES): Cc1cc(C)c2c(c1)ncn2Cc1ccc2nc(N[C@@H]3CCCC[C@H]3O)sc2c1 [Example 189]
- IC50 (M-NFS-60 cells): 50 to 400 nM

- Kd (FLT3): 200 to 1000 nM
Structure (SMILES): Cc1cc(Br)cc2ncn(Cc3ccc4nc(N[C@@H]5CCCC[C@H]5O)sc4c3)c12 [Example 190, (1R,2R)-2-((6-((5-bromo-7-methyl-1H-benzo[d]imidazol-1-yl)methyl)benzo[d]thiazol-2-yl)amino)cyclohexanol]
- IC50 (M-NFS-60 cells): 50 to 400 nM

- Kd (FLT3): 1000 to 5000 nM
Structure (SMILES): Fc1cnc2c(c1)ncn2Cc1ccc2nc(Nc3ccccc3)sc2c1 [Example 191, 6-((6-fluoro-3H-imidazo[4,5-b]pyridin-3-yl)methyl)-N-phenylbenzo[d]thiazol-2-amine]
- IC50 (M-NFS-60 cells): > 1500 nM

- Kd (FLT3): 1000 to 5000 nM
Structure (SMILES): OC[C@@H]1CCC[C@@H](Nc2nc3ccc(Cn4cnc5cc(F)cnc54)cc3s2)C1 [Example 192, ((1R,3R)-3-((6-((6-fluoro-3H-imidazo[4,5-b]pyridin-3-yl)methyl)benzo[d]thiazol-2-yl)amino)cyclohexyl)methanol]
- IC50 (M-NFS-60 cells): 400 to 1500 nM

- Kd (FLT3): 1000 to 5000 nM
Structure (SMILES): O[C@@H]1[C@H](O)CCC[C@H]1Nc1nc2ccc(Cn3cnc4cc(F)cnc43)cc2s1 [Example 193, (1R,2S,3R)-3-((6-((6-fluoro-3H-imidazo[4,5-b]pyridin-3-yl)methyl)benzo[d]thiazol-2-yl)amino)cyclohexane-1,2-diol]
- IC50 (M-NFS-60 cells): ≤ 50 nM

- Kd (FLT3): 200 to 1000 nM
Structure (SMILES): OC[C@H]1CCC[C@@H](Nc2nc3ccc(Cn4cnc5cc(F)cnc54)cc3s2)C1 [Example 194, ((1S,3R)-3-((6-((6-fluoro-3H-imidazo[4,5-b]pyridin-3-yl)methyl)benzo[d]thiazol-2-yl)amino)cyclohexyl)methanol]
- IC50 (M-NFS-60 cells): 50 to 400 nM

- Kd (FLT3): 1000 to 5000 nM
Structure (SMILES): N#Cc1cc2ncn(Cc3ccc4nc(N[C@@H]5CCCC[C@H]5O)oc4c3)c2cc1Cl [Example 195, 6-chloro-1-((2-(((1R,2R)-2-hydroxycyclohexyl)amino)benzo[d]oxazol-6-yl)methyl)-1H-benzo[d]imidazole-5-carbonitrile]
- IC50 (M-NFS-60 cells): 400 to 1500 nM
